Reference: patent US5620958A, “Bradykinin antagonists” (Coretech, Inc., priority 1994, dated 1997)
Where two headings read alike, the source gives them in different places. Peptide text beside a SMILES is read from it.

Experiments:
BK2 receptor [1] = biological target: T1, BK2 receptor (Rattus norvegicus, UniProt P25023); test: cell-based
T1 sequence (P25023 1-396): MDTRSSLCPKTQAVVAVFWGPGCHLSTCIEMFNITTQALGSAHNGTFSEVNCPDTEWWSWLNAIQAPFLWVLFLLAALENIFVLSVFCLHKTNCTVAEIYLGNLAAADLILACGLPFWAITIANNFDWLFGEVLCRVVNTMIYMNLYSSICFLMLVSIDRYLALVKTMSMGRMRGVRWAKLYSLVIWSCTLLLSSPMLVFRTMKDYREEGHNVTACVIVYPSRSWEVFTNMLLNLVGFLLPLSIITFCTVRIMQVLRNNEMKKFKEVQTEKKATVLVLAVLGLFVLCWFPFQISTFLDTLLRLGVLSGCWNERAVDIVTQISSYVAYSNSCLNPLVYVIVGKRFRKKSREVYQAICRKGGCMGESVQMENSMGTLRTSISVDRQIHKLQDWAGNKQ

NK1 receptor = biological target: T2, NK1 receptor (Cavia porcellus, UniProt P30547); test: guinea pig ileum assay of NK1 receptor activity against substance P; type: cell-based; conditions: Table O; read-out: NK1 : GPI pA2 (± s.e.m.) (converted)
T2 construct: a standard guinea pig ileum assay of NK1 receptor activity; from tissue; host or cells: guinea pig ileum
Text: In order to illustrate the potential of blocking two different receptor populations with a single compound a consensus NK1 receptor antagonist (DArg-DPro-Lys-Pro-Gln-Asn-DPhe-Phe-DTrp-Leu-Nle) was synthesized. […] Once the activity of this reference ligand was established, a series of lysine containing monomers formed by the systematic substitution of a lysine residue sequentially through the reference peptide was synthesized.

BK2 receptor [2] = biological target: T3, BK2 receptor (Cavia porcellus, UniProt O70526); test: guinea-pig ileum (GPI) in vitro, antagonism of BK; type: cell-based
T3 construct: tested for activity on guinea pig ileum in vitro on the standard tissue bath/strain gauge system; from tissue; host or cells: guinea pig ileum
T3 sequence (O70526 1-372): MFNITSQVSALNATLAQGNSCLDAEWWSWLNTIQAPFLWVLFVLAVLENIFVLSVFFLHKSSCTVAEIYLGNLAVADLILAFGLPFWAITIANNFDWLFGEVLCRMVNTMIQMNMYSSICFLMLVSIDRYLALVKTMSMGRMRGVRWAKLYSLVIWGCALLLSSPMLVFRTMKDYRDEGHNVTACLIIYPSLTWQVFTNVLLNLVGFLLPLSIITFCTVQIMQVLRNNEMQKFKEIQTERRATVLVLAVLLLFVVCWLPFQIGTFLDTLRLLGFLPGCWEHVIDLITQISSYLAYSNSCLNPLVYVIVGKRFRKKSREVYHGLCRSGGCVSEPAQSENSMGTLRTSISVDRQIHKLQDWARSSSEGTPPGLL
Experimental: Thus, in vitro studies were performed on standard assay systems, namely, guinea-pig ileum (GPI), rat uterus (RU) and rabbit jugular vein (RJV). […] The potency of each compound was assessed as a pA2 value according to the method of Arunlakshana & Schild, Br. J. Pharmacol. Chemother., 1.4:48-58 (1959). The pA2 can be defined as the negative logarithm of the molar concentration of the antagonist in the presence of which the potency of the agonist is reduced two-fold, i.e., twice the amount of agonist is required to produce a given response in the presence of, than in the absence of, the antagonist. A high potency of antagonism is indicated by a high pA2 value, i.e., a low concentration of antagonist is effective.
The percentage recovery (% Rec) was also determined for compounds with respect to each assay.
The various compounds identified in Table B below were prepared following the procedure of Example 1 with the Cys moiety introduced into the parent CP-0088 at the position indicated followed by reaction between the sulfhydryl group of the Cys residue and BMH to provide dimers as indicated. The Cys-modified monomers and the resultant dimers were tested for activity on guinea pig ileum in vitro on the standard tissue bath/strain gauge system as before.

[3] = Table B, read-out: pA2 GUINEA PIG ILEUM (converted)

T2 sequence (P30547 whole entry): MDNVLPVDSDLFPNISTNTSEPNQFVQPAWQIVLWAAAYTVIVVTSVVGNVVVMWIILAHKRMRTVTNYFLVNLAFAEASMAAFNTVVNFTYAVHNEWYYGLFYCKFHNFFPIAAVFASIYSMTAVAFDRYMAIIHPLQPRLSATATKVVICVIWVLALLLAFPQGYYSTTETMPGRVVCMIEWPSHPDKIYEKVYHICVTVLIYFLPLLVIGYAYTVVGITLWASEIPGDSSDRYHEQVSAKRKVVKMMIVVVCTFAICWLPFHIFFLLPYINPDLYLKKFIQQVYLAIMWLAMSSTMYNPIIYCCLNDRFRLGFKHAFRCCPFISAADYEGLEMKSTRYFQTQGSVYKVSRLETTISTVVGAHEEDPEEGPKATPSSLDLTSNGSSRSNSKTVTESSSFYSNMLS

Compound	Kb (BK2 receptor [1]) [nM]	Kb (NK1 receptor) [nM]	Kb (BK2 receptor [2]; Table E, read-out: GPI pA2 (converted)) [nM]	Kb (BK2 receptor [2]; [3]) [nM]
CCCC[C@H](NC(=O)[C@H](CC(C)C)NC(=O)[C@@H](Cc1c[nH]c2ccccc12)NC(=O)[C@H](Cc1ccccc1)NC(=O)[C@@H](Cc1ccccc1)NC(=O)[C@H](CC(N)=O)NC(=O)[C@H](CCCCNC(=O)CCCCCN1C(=O)CC(SC[C@H](NC(=O)[C@H](Cc2ccccc2)NC(=O)CNC(=O)[C@@H]2C[C@@H](O)CN2C(=O)[C@@H]2CCCN2C(=O)[C@H](CCCNC(=N)N)NC(=O)[C@H](N)CCCNC(=N)N)C(=O)N[C@H](Cc2ccccc2)C(=O)N[C@@H](CC(C)C)C(=O)N[C@@H](CCCNC(=N)N)C(=O)O)C1=O)NC(=O)[C@@H]1CCCN1C(=O)[C@H](CCCCN)NC(=O)[C@H]1CCCN1C(=O)[C@H](N)CCCNC(=N)N)C(N)=O (stereo partly drawn) [CP-0394] (HELM PEPTIDE1{[dR].[dP].K.P.K.N.[dF].F.[dW].L.[Nle].[am]}|PEPTIDE2{[dR].R.P.[Hyp].G.F.C.[dF].L.R}|CHEM1{[O=C1CC([*:2])C(=O)N1CCCCCC(=O)[*:1]]}$PEPTIDE1,CHEM1,5:R3-1:R1|PEPTIDE2,CHEM1,7:R3-1:R2$$$V2.0)	12.6	1580		
CCCC[C@H](NC(=O)[C@H](CC(C)C)NC(=O)[C@@H](Cc1c[nH]c2ccccc12)NC(=O)[C@H](Cc1ccccc1)NC(=O)[C@@H](Cc1ccccc1)NC(=O)[C@H](CC(N)=O)NC(=O)[C@H](CCC(N)=O)NC(=O)[C@H](CCCCNC(=O)CCCCCN1C(=O)CC(SC[C@H](NC(=O)[C@H](Cc2ccccc2)NC(=O)CNC(=O)[C@@H]2C[C@@H](O)CN2C(=O)[C@@H]2CCCN2C(=O)[C@H](CCCNC(=N)N)NC(=O)[C@H](N)CCCNC(=N)N)C(=O)N[C@H](Cc2ccccc2)C(=O)N[C@@H](CC(C)C)C(=O)N[C@@H](CCCNC(=N)N)C(=O)O)C1=O)NC(=O)[C@H](CCCCN)NC(=O)[C@H]1CCCN1C(=O)[C@H](N)CCCNC(=N)N)C(N)=O (stereo partly drawn) [CP-0393] (HELM PEPTIDE1{[dR].[dP].K.K.Q.N.[dF].F.[dW].L.[Nle].[am]}|PEPTIDE2{[dR].R.P.[Hyp].G.F.C.[dF].L.R}|CHEM1{[O=C1CC([*:2])C(=O)N1CCCCCC(=O)[*:1]]}$PEPTIDE1,CHEM1,4:R3-1:R1|PEPTIDE2,CHEM1,7:R3-1:R2$$$V2.0)	39.8	3160		
CCCC[C@H](NC(=O)[C@H](CC(C)C)NC(=O)[C@@H](Cc1c[nH]c2ccccc12)NC(=O)[C@H](Cc1ccccc1)NC(=O)[C@@H](Cc1ccccc1)NC(=O)[C@H](CC(N)=O)NC(=O)[C@H](CCC(N)=O)NC(=O)[C@@H]1CCCN1C(=O)[C@H](CCCCN)NC(=O)[C@H]1CCCN1C(=O)[C@@H](N)CCCCNC(=O)CCCCCN1C(=O)CC(SC[C@H](NC(=O)[C@H](Cc2ccccc2)NC(=O)CNC(=O)[C@@H]2C[C@@H](O)CN2C(=O)[C@@H]2CCCN2C(=O)[C@H](CCCNC(=N)N)NC(=O)[C@H](N)CCCNC(=N)N)C(=O)N[C@H](Cc2ccccc2)C(=O)N[C@@H](CC(C)C)C(=O)N[C@@H](CCCNC(=N)N)C(=O)O)C1=O)C(N)=O (stereo partly drawn) [CP-0390] (HELM PEPTIDE1{K.[dP].K.P.Q.N.[dF].F.[dW].L.[Nle].[am]}|PEPTIDE2{[dR].R.P.[Hyp].G.F.C.[dF].L.R}|CHEM1{[O=C1CC([*:2])C(=O)N1CCCCCC(=O)[*:1]]}$PEPTIDE1,CHEM1,1:R3-1:R1|PEPTIDE2,CHEM1,7:R3-1:R2$$$V2.0)	63.1	15800		
CC(C)C[C@H](NC(=O)[C@@H](Cc1ccccc1)NC(=O)[C@H](CSSC[C@H](NC(=O)[C@H](Cc1ccccc1)NC(=O)CNC(=O)[C@@H]1C[C@@H](O)CN1C(=O)[C@@H]1CCCN1C(=O)[C@H](CCCNC(=N)N)NC(=O)[C@H](N)CCCNC(=N)N)C(=O)N[C@H](Cc1ccccc1)C(=O)N[C@@H](CC(C)C)C(=O)N[C@@H](CCCNC(=N)N)C(=O)O)NC(=O)[C@H](Cc1ccccc1)NC(=O)CNC(=O)[C@@H]1C[C@@H](O)CN1C(=O)[C@@H]1CCCN1C(=O)[C@H](CCCNC(=N)N)NC(=O)[C@H](N)CCCNC(=N)N)C(=O)N[C@@H](CCCNC(=N)N)C(=O)O [CP-0138] (HELM PEPTIDE1{[dR].R.P.[Hyp].G.F.C.[dF].L.R}|PEPTIDE2{[dR].R.P.[Hyp].G.F.C.[dF].L.R}$PEPTIDE1,PEPTIDE2,7:R3-7:R3$$$V2.0)	10		63.1	
CC(C)C[C@H](NC(=O)[C@@H](Cc1ccccc1)NC(=O)[C@H](CO)NC(=O)[C@H](Cc1ccccc1)NC(=O)CNC(=O)[C@H](CS)NC(=O)[C@@H]1CCCN1C(=O)[C@H](CCCNC(=N)N)NC(=O)[C@H](N)CCCNC(=N)N)C(=O)N[C@@H](CCCNC(=N)N)C(=O)O [CP-0143] (HELM PEPTIDE1{[dR].R.P.C.G.F.S.[dF].L.R}$$$$V2.0)				200
CC(C)C[C@H](NC(=O)[C@@H](Cc1ccccc1)NC(=O)[C@H](CO)NC(=O)[C@H](Cc1ccccc1)NC(=O)CNC(=O)[C@@H]1C[C@@H](O)CN1C(=O)[C@@H]1CCCN1C(=O)[C@H](CSC1CC(=O)N(CCCCCCN2C(=O)CC(SC[C@H](NC(=O)[C@H](N)CCCNC(=N)N)C(=O)N3CCC[C@H]3C(=O)N3C[C@H](O)C[C@H]3C(=O)NCC(=O)N[C@@H](Cc3ccccc3)C(=O)N[C@@H](CO)C(=O)N[C@H](Cc3ccccc3)C(=O)N[C@@H](CC(C)C)C(=O)N[C@@H](CCCNC(=N)N)C(=O)O)C2=O)C1=O)NC(=O)[C@H](N)CCCNC(=N)N)C(=O)N[C@@H](CCCNC(=N)N)C(=O)O (stereo partly drawn) [CP-0153] (HELM PEPTIDE1{[dR].C.P.[Hyp].G.F.S.[dF].L.R}|PEPTIDE2{[dR].C.P.[Hyp].G.F.S.[dF].L.R}|CHEM1{[O=C1CC([*:1])C(=O)N1CCCCCCN1C(=O)CC([*:2])C1=O]}$PEPTIDE1,CHEM1,2:R3-1:R1|PEPTIDE2,CHEM1,2:R3-1:R2$$$V2.0)				25.1
CC(C)C[C@H](NC(=O)[C@@H](Cc1ccccc1)NC(=O)[C@H](CO)NC(=O)[C@H](Cc1ccccc1)NC(=O)CNC(=O)[C@@H]1C[C@@H](O)CN1C(=O)[C@H](CS)NC(=O)[C@H](CCCNC(=N)N)NC(=O)[C@H](N)CCCNC(=N)N)C(=O)N[C@@H](CCCNC(=N)N)C(=O)O [CP-0142] (HELM PEPTIDE1{[dR].R.C.[Hyp].G.F.S.[dF].L.R}$$$$V2.0)				> 1000
CC(C)C[C@H](NC(=O)[C@@H](Cc1ccccc1)NC(=O)[C@H](CO)NC(=O)[C@H](Cc1ccccc1)NC(=O)CNC(=O)[C@@H]1C[C@@H](O)CN1C(=O)[C@@H]1CCCN1C(=O)[C@H](CCCNC(=N)N)NC(=O)[C@@H](N)CS)C(=O)N[C@@H](CCCNC(=N)N)C(=O)O [CP-0140] (HELM PEPTIDE1{C.R.P.[Hyp].G.F.S.[dF].L.R}$$$$V2.0)	79.4			200
CC(C)C[C@H](NC(=O)[C@@H](Cc1ccccc1)NC(=O)[C@H](CO)NC(=O)[C@H](Cc1ccccc1)NC(=O)CNC(=O)[C@@H]1C[C@@H](O)CN1C(=O)[C@@H]1CCCN1C(=O)[C@H](CCCNC(=N)N)NC(=O)[C@H](N)CS)C(=O)N[C@@H](CCCNC(=N)N)C(=O)O [CP-0149] (HELM PEPTIDE1{[dC].R.P.[Hyp].G.F.S.[dF].L.R}$$$$V2.0)				200
CC(C)C[C@H](NC(=O)[C@@H](Cc1ccccc1)NC(=O)[C@H](CO)NC(=O)[C@H](Cc1ccccc1)NC(=O)CNC(=O)[C@@H]1C[C@@H](O)CN1C(=O)[C@H](CSC1CC(=O)N(CCCCCCN2C(=O)CC(SC[C@H](NC(=O)[C@H](CCCNC(=N)N)NC(=O)[C@H](N)CCCNC(=N)N)C(=O)N3C[C@H](O)C[C@H]3C(=O)NCC(=O)N[C@@H](Cc3ccccc3)C(=O)N[C@@H](CO)C(=O)N[C@H](Cc3ccccc3)C(=O)N[C@@H](CC(C)C)C(=O)N[C@@H](CCCNC(=N)N)C(=O)O)C2=O)C1=O)NC(=O)[C@H](CCCNC(=N)N)NC(=O)[C@H](N)CCCNC(=N)N)C(=O)N[C@@H](CCCNC(=N)N)C(=O)O (stereo partly drawn) [CP-0154] (HELM PEPTIDE1{[dR].R.C.[Hyp].G.F.S.[dF].L.R}|PEPTIDE2{[dR].R.C.[Hyp].G.F.S.[dF].L.R}|CHEM1{[O=C1CC([*:1])C(=O)N1CCCCCCN1C(=O)CC([*:2])C1=O]}$PEPTIDE1,CHEM1,3:R3-1:R1|PEPTIDE2,CHEM1,3:R3-1:R2$$$V2.0)				126
